Data reported in PubChem BioAssay (NCI).
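Briefly, cells in 96-well plates were exposed to five compound concentrations for 48 h, and endpoints were estimated by linear interpolation. Here, GI50 denotes the concentration required for 50% inhibition of growth. TGI: concentration producing complete growth inhibition.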

Key:
Experiment in all cases: growth of human tumour cells (NCI), 48 h
786-0 renal = system: 786-0 renal
A498 renal = system: A498 renal
A549 NSCLC = system: A549 NSCLC
ACHN renal = system: ACHN renal
BT-549 breast = system: BT-549 breast
CAKI-1 renal = system: CAKI-1 renal
CCRF-CEM leukemia = system: CCRF-CEM leukemia
COLO 205 colon = system: COLO 205 colon
EKVX NSCLC = system: EKVX NSCLC
HCC-2998 colon = system: HCC-2998 colon
HCT-15 colon = system: HCT-15 colon
HOP-62 NSCLC = system: HOP-62 NSCLC
HOP-92 NSCLC = system: HOP-92 NSCLC
HS 578T breast = system: HS 578T breast
HT29 colon = system: HT29 colon
IGROV1 ovarian = system: IGROV1 ovarian
KM12 colon = system: KM12 colon
LOX IMVI melanoma = system: LOX IMVI melanoma
M14 melanoma = system: M14 melanoma
MALME-3M melanoma = system: MALME-3M melanoma
MCF7 breast = system: MCF7 breast
MDA-MB-231 breast = system: MDA-MB-231 breast
MDA-MB-435 = system: MDA-MB-435
MOLT-4 leukemia = system: MOLT-4 leukemia
NCI-H23 lung = system: NCI-H23 lung
NCI-H460 lung = system: NCI-H460 lung
NCI-H522 lung = system: NCI-H522 lung
NCI/ADR-RES ovarian = system: NCI/ADR-RES ovarian
OVCAR-4 ovarian = system: OVCAR-4 ovarian
OVCAR-5 ovarian = system: OVCAR-5 ovarian
OVCAR-8 ovarian = system: OVCAR-8 ovarian
PC-3 prostate = system: PC-3 prostate
RPMI-8226 leukemia = system: RPMI-8226 leukemia
SF-268 CNS = system: SF-268 CNS
SF-539 CNS = system: SF-539 CNS
SK-MEL-28 melanoma = system: SK-MEL-28 melanoma
SK-MEL-5 melanoma = system: SK-MEL-5 melanoma
SK-OV-3 ovarian = system: SK-OV-3 ovarian
SN12C renal = system: SN12C renal
SNB-19 CNS = system: SNB-19 CNS
SR leukemia = system: SR leukemia
SW-620 colon = system: SW-620 colon
TK-10 renal = system: TK-10 renal
U251 CNS = system: U251 CNS
UACC-257 melanoma = system: UACC-257 melanoma
UACC-62 melanoma = system: UACC-62 melanoma
UO-31 renal = system: UO-31 renal
DU-145 prostate = system: DU-145 prostate
HCT-116 colon = system: HCT-116 colon
HL-60(TB) leukemia = system: HL-60(TB) leukemia
K-562 leukemia = system: K-562 leukemia
NCI-H226 lung = system: NCI-H226 lung
OVCAR-3 ovarian = system: OVCAR-3 ovarian
RXF 393 renal = system: RXF 393 renal
SF-295 CNS = system: SF-295 CNS
SK-MEL-2 melanoma = system: SK-MEL-2 melanoma
SNB-75 CNS = system: SNB-75 CNS

SMILES: COc1cccc(-c2cc(=O)c3cc(NC(C)=O)ccc3[nH]2)c1
- TGI (786-0 renal): > 100 µM
- TGI (A498 renal): 61 µM
- TGI (A549 NSCLC): > 100 µM
- TGI (ACHN renal): > 100 µM
- TGI (BT-549 breast): > 100 µM
- TGI (CAKI-1 renal): > 100 µM
- TGI (CCRF-CEM leukemia): 9.27 µM
- TGI (COLO 205 colon): > 100 µM
- TGI (EKVX NSCLC): > 100 µM
- TGI (HCC-2998 colon): > 100 µM
- TGI (HCT-15 colon): > 100 µM
- TGI (HOP-62 NSCLC): > 100 µM
- TGI (HOP-92 NSCLC): > 100 µM
- TGI (HS 578T breast): 8.35 µM
- TGI (HT29 colon): > 100 µM
- TGI (IGROV1 ovarian): > 100 µM
- TGI (KM12 colon): > 100 µM
- TGI (LOX IMVI melanoma): > 100 µM
- TGI (M14 melanoma): > 100 µM
- TGI (MALME-3M melanoma): > 100 µM
- TGI (MCF7 breast): > 100 µM
- TGI (MDA-MB-231 breast): > 100 µM
- TGI (MDA-MB-435): 17.1 µM
- TGI (MOLT-4 leukemia): > 100 µM
- TGI (NCI-H23 lung): > 100 µM
- TGI (NCI-H460 lung): > 100 µM
- TGI (NCI-H522 lung): > 100 µM
- TGI (NCI/ADR-RES ovarian): > 100 µM
- GI50 (OVCAR-4 ovarian): 19.6 µM
- TGI (OVCAR-4 ovarian): > 100 µM
- TGI (OVCAR-5 ovarian): > 100 µM
- TGI (OVCAR-8 ovarian): > 100 µM
- TGI (PC-3 prostate): > 100 µM
- TGI (RPMI-8226 leukemia): 96.2 µM
- TGI (SF-268 CNS): > 100 µM
- TGI (SF-539 CNS): 44.7 µM
- TGI (SK-MEL-28 melanoma): > 100 µM
- TGI (SK-MEL-5 melanoma): 56 µM
- TGI (SK-OV-3 ovarian): > 100 µM
- TGI (SN12C renal): > 100 µM
- TGI (SNB-19 CNS): > 100 µM
- TGI (SR leukemia): 6 µM
- TGI (SW-620 colon): > 100 µM
- TGI (TK-10 renal): > 100 µM
- TGI (U251 CNS): > 100 µM
- TGI (UACC-257 melanoma): > 100 µM
- TGI (UACC-62 melanoma): > 100 µM
- TGI (UO-31 renal): > 100 µM

SMILES: Cn1cc(-c2ccc(-c3cn(C)c4ncccc34)[nH]2)c2cccnc21
- GI50 (786-0 renal): 4.64 µM
- TGI (786-0 renal): 38.6 µM
- GI50 (A498 renal): > 26.3 µM
- TGI (A498 renal): > 100 µM
- GI50 (A549 NSCLC): 7.84 µM
- TGI (A549 NSCLC): > 100 µM
- GI50 (ACHN renal): 1.62 µM
- TGI (ACHN renal): 3.08 µM
- GI50 (BT-549 breast): 1.07 µM
- TGI (BT-549 breast): 2.79 µM
- GI50 (CAKI-1 renal): 1.44 µM
- TGI (CAKI-1 renal): 4.03 µM
- GI50 (CCRF-CEM leukemia): 2.27 µM
- TGI (CCRF-CEM leukemia): 7.56 µM
- GI50 (COLO 205 colon): 1.82 µM
- TGI (COLO 205 colon): 3.84 µM
- GI50 (DU-145 prostate): > 100 µM
- TGI (DU-145 prostate): > 100 µM
- GI50 (EKVX NSCLC): 1.62 µM
- TGI (EKVX NSCLC): 3.34 µM
- GI50 (HCC-2998 colon): 2.51 µM
- TGI (HCC-2998 colon): 5.89 µM
- GI50 (HCT-116 colon): 2.81 µM
- TGI (HCT-116 colon): 12.4 µM
- GI50 (HCT-15 colon): 1.69 µM
- TGI (HCT-15 colon): 4.63 µM
- GI50 (HL-60(TB) leukemia): 1.87 µM
- TGI (HL-60(TB) leukemia): 7.48 µM
- GI50 (HOP-62 NSCLC): 3.02 µM
- TGI (HOP-62 NSCLC): 24.8 µM
- GI50 (HOP-92 NSCLC): 0.448 µM
- TGI (HOP-92 NSCLC): 2.13 µM
- GI50 (HS 578T breast): 1.95 µM
- TGI (HS 578T breast): 6.42 µM
- GI50 (HT29 colon): 10 µM
- TGI (HT29 colon): > 100 µM
- GI50 (IGROV1 ovarian): 4.5 µM
- TGI (IGROV1 ovarian): 53.4 µM
- GI50 (K-562 leukemia): 1.76 µM
- TGI (K-562 leukemia): 8.11 µM
- GI50 (KM12 colon): 2.02 µM
- TGI (KM12 colon): 4.23 µM
- GI50 (LOX IMVI melanoma): 2 µM
- TGI (LOX IMVI melanoma): 3.93 µM
- GI50 (M14 melanoma): 1.94 µM
- TGI (M14 melanoma): 3.97 µM
- GI50 (MALME-3M melanoma): 2.7 µM
- TGI (MALME-3M melanoma): 7.12 µM
- GI50 (MCF7 breast): 5.54 µM
- TGI (MCF7 breast): > 100 µM
- GI50 (MDA-MB-231 breast): 1.79 µM
- TGI (MDA-MB-231 breast): 4.08 µM
- GI50 (MDA-MB-435): 24 µM
- TGI (MDA-MB-435): > 100 µM
- GI50 (MOLT-4 leukemia): 10.2 µM
- TGI (MOLT-4 leukemia): > 100 µM
- GI50 (NCI-H226 lung): > 67.1 µM
- TGI (NCI-H226 lung): > 100 µM
- GI50 (NCI-H23 lung): 3.18 µM
- TGI (NCI-H23 lung): 12.7 µM
- GI50 (NCI-H460 lung): 10 µM
- TGI (NCI-H460 lung): > 100 µM
- GI50 (NCI-H522 lung): 0.19 µM
- TGI (NCI-H522 lung): 0.451 µM
- GI50 (NCI/ADR-RES ovarian): 2.93 µM
- TGI (NCI/ADR-RES ovarian): 9.59 µM
- GI50 (OVCAR-3 ovarian): 1.63 µM
- TGI (OVCAR-3 ovarian): 3.3 µM
- GI50 (OVCAR-4 ovarian): 0.638 µM
- TGI (OVCAR-4 ovarian): 1.61 µM
- GI50 (OVCAR-5 ovarian): 1.65 µM
- TGI (OVCAR-5 ovarian): 3.59 µM
- GI50 (OVCAR-8 ovarian): 2.44 µM
- TGI (OVCAR-8 ovarian): 6.45 µM
- GI50 (PC-3 prostate): 1.43 µM
- TGI (PC-3 prostate): 3.38 µM
- GI50 (RPMI-8226 leukemia): 1.94 µM
- TGI (RPMI-8226 leukemia): 6.88 µM
- GI50 (RXF 393 renal): 1.52 µM
- TGI (RXF 393 renal): 3.65 µM
- GI50 (SF-268 CNS): 2.23 µM
- TGI (SF-268 CNS): 5.45 µM
- GI50 (SF-295 CNS): 4.28 µM
- TGI (SF-295 CNS): 12.1 µM
- GI50 (SF-539 CNS): 1.59 µM
- TGI (SF-539 CNS): 3.32 µM
- GI50 (SK-MEL-2 melanoma): 1.91 µM
- TGI (SK-MEL-2 melanoma): 4.04 µM
- GI50 (SK-MEL-28 melanoma): 3.33 µM
- TGI (SK-MEL-28 melanoma): 10.9 µM
- GI50 (SK-MEL-5 melanoma): 1.6 µM
- TGI (SK-MEL-5 melanoma): 3.47 µM
- GI50 (SK-OV-3 ovarian): 25.1 µM
- TGI (SK-OV-3 ovarian): > 100 µM
- GI50 (SN12C renal): 7.26 µM
- TGI (SN12C renal): > 100 µM
- GI50 (SNB-19 CNS): 2.65 µM
- TGI (SNB-19 CNS): 8.03 µM
- GI50 (SNB-75 CNS): 1.82 µM
- TGI (SNB-75 CNS): 4.34 µM
- GI50 (SR leukemia): 1.62 µM
- TGI (SR leukemia): > 22.1 µM
- GI50 (SW-620 colon): 2.32 µM
- TGI (SW-620 colon): 5.34 µM
- GI50 (TK-10 renal): 1.48 µM
- TGI (TK-10 renal): 2.88 µM
- GI50 (U251 CNS): 1.66 µM
- TGI (U251 CNS): 3.17 µM
- GI50 (UACC-257 melanoma): 2.93 µM
- TGI (UACC-257 melanoma): 19.6 µM
- GI50 (UACC-62 melanoma): 1.63 µM
- TGI (UACC-62 melanoma): 3.76 µM
- GI50 (UO-31 renal): 1.57 µM
- TGI (UO-31 renal): 3.01 µM
